Key:
CRBN E3 ligase = assay: MS comparison of loss-of-function CRBN-BirA mutants (D249Y, W386A) with WT CRBN-BirA under CC-885; type: cell-based, human; conditions: CC-885 1 μM, 1 hour; D249Y and W386A; FIGS. 16A, 16B
Method: Experiments were performed to identify substrates of an E3 ligase using CRBN as a representative E3 ligase. The experiments compared loss-of-function mutants of an E3 ligase (e.g., CRBN E3 ligase) to the wildtype (WT) ligase. FIGS. 16A and 16B show the results of a mass spectrometry experiment in which protein substrates susceptible to CC-885 induced ubiquitination were identified. These experiments were performed in HEK293T^CRBN−/− cells transiently expressing A3-HA-Ub and either WT CRBN-BirA or CRBN-BirA mutant D249Y (FIG. 16A) or CRBN-BirA mutant W386A (FIG. 16B). Compared with CRBN(WT), CRBN(D249Y) had decreased association with the CRL4 complex, while CRBN(W386A) had decreased affinity for CC-885. Both mutants were expected to have a diminished ability to ubiquitinate CC-885-induced substrates. While cultured in biotin-free medium, the cells were pre-treated with carfilzomib (carf; 0.4 μM) for 1 hour, and then were treated with the IMiD derivative CC-885 (1 μM) for another hour. […] Enrichment of biotinylated species by streptavidin-coated beads, protein digestion, and protein identification and quantification by mass spectrometry were performed exactly as described in Example 3 and 4. […]

GSPT1 = assay: Streptavidin pulldown and Western blot of biotinylated ubiquitinated GSPT1 in 293T CRBN-/- CRBN-BirA cells; type: cell-based, human
Method: However, instead of assessing transiently-expressed V5-tagged IKZF1, an endogenous neo-substrate of CRBN, namely, GSPT1, was assessed. […] Following incubation with the components and added agents, the cells were lysed, and streptavidin-coated beads were used to capture from the cell lysate biotinylated, ubiquitinated proteins, e.g., the endogenous GSPT1 substrate. The biotinylated proteins eluted from the beads were subjected to Western blot analyses.
The cells were either treated or untreated with carfilzomib (0.4 μM) for 1 hour and were either treated or untreated with the CRBN-IMiD modifying agent CC-885 (1 μM) for another hour. […] As discussed above in Example 1, the GSPT1 substrate of BirA-tagged CRBN is expressed endogenously in 293T cells.
The preparation of cellular lysate was as described above for Cell Lysis, except that the RIPA buffer was supplemented with COMPLETE™ EDTA-free protease inhibitor cocktail (Roche; 04693159001; 1 tablet per 10 ml of buffer), benzonase (Millipore; E1014; 1 μl per 10 ml of buffer), 1.5 mM MgCl2, 1 mM EGTA, and 10 mM NEM (N-ethylmaleimide). For each sample, 1 ml of 3 mg/ml lysate was rotated overnight at 4° C. with 50 μl of resuspended streptavidin Sepharose beads (CYTIVA™; 17511301), which were pre-washed with RIPA lysis buffer 3 times. For all steps that required pelleting of beads, centrifugation was performed at 400×g for 1 minute. On the next day, streptavidin beads were pelleted, and the supernatant (a.k.a. flow-through) was either saved for analysis by Western blotting or was discarded. Streptavidin beads were then washed two times with 1 ml of 2% SDS wash buffer (2% SDS, 25 mM Tris-HCl, pH 7.5), and three times with 0.5-1 ml of 2M urea wash buffer (2M urea, 50 mM Tris-HCl, pH 8). Between each wash, the beads were rotated at room temperature for at least 5 minutes. During the last wash, the beads and the washing buffer were transferred to a new microfuge tube. […] For mass spectrometry-based analysis, the procedures described in On-bead Digestion below were used.
On the next day, the cells were transfected using pRK5-Avi-HA-ubiquitin or pRK5-A3-HA-ubiquitin in serum-free DMEM.

## Cc1ccc(NC(=O)NCc2ccc3c(c2)CN(C2CCC(=O)NC2=O)C3=O)cc1Cl (stereo not drawn) [CC-885]
CRBN E3 ligase
  Induced ubiquitinated substrates revealed by decreased biotinylation with CRBN-BirA mutants versus WT: GSPT1, GSPT2, VCL and CSNK1A1
GSPT1; A3-tag compared to Avi-tag, FIG. 6C
  Specific signal, normalized GSPT1/biotin ratios: increase in specific signal
GSPT1; A3-tag, FIG. 6C
  Sensitivity in detecting CC-885-induced ubiquitination of GSPT1 by CRBN: 36.39
GSPT1; Avi-HA-Ub, 1 μM, 2 hours, Western blot quantification (FIG. 5C)
  Ubiquitinated GSPT1 captured by streptavidin beads compared with DMSO: 6-12 fold
GSPT1; Avi-HA-Ub, FIG. 5C
  Mono- and poly-ubiquitinated GSPT1 captured by streptavidin beads: only observed in conditions where CC-885 was present
GSPT1; Avi-tag, FIG. 6C
  Sensitivity in detecting CC-885-induced ubiquitination of GSPT1 by CRBN: 15.46
